According to the supplement of paper PMC12350171:

Legend:
Bacteroides fragilis NT = test: IC25 growth inhibition; higher = less potent
Method in brief: (§1)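 Under anaerobic conditions, OD578 was read hourly in a plate reader for at least three biological replicates of monocultures grown overnight in mGAM. Each culture started at an OD578 of 0.01 in pre-reduced plates holding twofold drug dilutions and 1% DMSO (or water). IC25 was reported as a tested interval: the lowest concentration where the monotonic median area under the growth curve dropped below the cutoff. That cutoff was 0.75.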

[1] = tested on: Bacteroides thetaiotaomicron; test: IC25 growth inhibition; higher = less potent
Method in brief: as §1

Bacteroides uniformis = test: IC25 growth inhibition; higher = less potent
Method in brief: as §1

Bacteroides vulgatus = test: IC25 growth inhibition; higher = less potent
Method in brief: as §1

Collinsella aerofaciens = test: IC25 growth inhibition; higher = less potent
Method in brief: as §1

Coprococcus comes = test: IC25 growth inhibition; higher = less potent
Method in brief: as §1

Dorea formicigenerans = test: IC25 growth inhibition; higher = less potent
Method in brief: as §1

Escherichia coli ED1a = test: IC25 growth inhibition; higher = less potent
Method in brief: as §1

Eubacterium rectale = test: IC25 growth inhibition; higher = less potent
Method in brief: as §1

[2] = tested on: Fusobacterium nucleatum subsp. Nucleatum; test: IC25 growth inhibition; higher = less potent
Method in brief: as §1

Parabacteroides merdae = test: IC25 growth inhibition; higher = less potent
Method in brief: as §1

Roseburia intestinalis = test: IC25 growth inhibition; higher = less potent
Method in brief: as §1

Ruminococcus gnavus = test: IC25 growth inhibition; higher = less potent
Method in brief: as §1

[3] = tested on: Salmonella enterica typhimurium; test: IC25 growth inhibition; higher = less potent
Method in brief: as §1

Shigella flexneri = test: IC25 growth inhibition; higher = less potent
Method in brief: as §1

[4] = tested on: Streptococcus parasanguinis; test: IC25 growth inhibition; higher = less potent
Method in brief: as §1

Streptococcus salivarius = test: IC25 growth inhibition; higher = less potent
Method in brief: as §1

Vibrio cholerae = test: IC25 growth inhibition; higher = less potent
Method in brief: as §1

[5] = tested on: Yersinia enterocolitica WA-314; test: IC25 growth inhibition; higher = less potent
Method in brief: as §1

[6] = tested on: Yersinia pseudotuberculosis; test: IC25 growth inhibition; higher = less potent
Method in brief: as §1

Clostridium bolteae = test: IC25 growth inhibition; higher = less potent
Method in brief: as §1

Clostridium perfringens = test: IC25 growth inhibition; higher = less potent
Method in brief: as §1

Clostridium ramosum = test: IC25 growth inhibition; higher = less potent
Method in brief: as §1

[7] = tested on: Clostridium saccharolyticum; test: IC25 growth inhibition; higher = less potent
Method in brief: as §1

[8] = tested on: Com21 synthetic gut community; test: community biomass OD578 after 24 h drug treatment relative to untreated (fraction of untreated control); higher = more community growth; conditions: community: Com21 (Com20 + E. coli ED1a)
Procedure: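 Com21 (Com20 plus E. coli ED1a) was treated with drug for 24 h under anaerobic conditions in mGAM. Community OD578 was then measured and normalised to untreated Com21; mean of 3 biological replicates.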

[9] = drug pretreatment concentration 10 µM
[10] = drug pretreatment concentration 20 µM
[11] = drug pretreatment concentration 40 µM
[12] = drug pretreatment concentration 80 µM
[13] = drug pretreatment concentration 160 µM
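For IC25 growth inhibition in this document: lowest concentration where monotonic median growth AUC falls below 0.75 of drug-free control.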

Row | SMILES | IC25 growth inhibition (Bacteroides fragilis NT) [µM] | IC25 growth inhibition [1] [µM] | IC25 growth inhibition (Bacteroides uniformis) [µM] | IC25 growth inhibition (Bacteroides vulgatus) [µM] | IC25 growth inhibition (Collinsella aerofaciens) [µM] | IC25 growth inhibition (Coprococcus comes) [µM] | IC25 growth inhibition (Dorea formicigenerans) [µM] | IC25 growth inhibition (Escherichia coli ED1a) [µM] | IC25 growth inhibition (Eubacterium rectale) [µM] | IC25 growth inhibition [2] [µM] | IC25 growth inhibition (Parabacteroides merdae) [µM] | IC25 growth inhibition (Roseburia intestinalis) [µM] | IC25 growth inhibition (Ruminococcus gnavus) [µM] | IC25 growth inhibition [3] [µM] | IC25 growth inhibition (Shigella flexneri) [µM] | IC25 growth inhibition [4] [µM] | IC25 growth inhibition (Streptococcus salivarius) [µM] | IC25 growth inhibition (Vibrio cholerae) [µM] | IC25 growth inhibition [5] [µM] | IC25 growth inhibition [6] [µM] | IC25 growth inhibition (Clostridium bolteae) [µM] | IC25 growth inhibition (Clostridium perfringens) [µM] | IC25 growth inhibition (Clostridium ramosum) [µM] | IC25 growth inhibition [7] [µM] | community biomass OD578 [8, 9] | community biomass OD578 [8, 10] | community biomass OD578 [8, 11] | community biomass OD578 [8, 12] | community biomass OD578 [8, 13]
1 | CCOC(=O)C1=C(COCCN)NC(C)=C(C(=O)OC)C1c1ccccc1Cl (stereo not drawn) [Amlodipine] | ≤ 80 | ≤ 80 | ≤ 80 | ≤ 40 | ≤ 80 | > 80 | ≤ 40 | > 80 | ≤ 80 | ≤ 80 | ≤ 80 | ≤ 40 | ≤ 80 | > 80 | > 80 | > 80 | ≤ 40 | > 80 | > 80 | > 80 | – | – | – | – | – | – | – | – | –
2 | O=C1CCc2ccc(OCCCCN3CCN(c4cccc(Cl)c4Cl)CC3)cc2N1 [Aripiprazole] | > 160 | > 160 | > 160 | > 160 | > 160 | > 160 | > 160 | > 160 | > 160 | > 160 | > 160 | > 160 | > 160 | > 80 | > 160 | > 80 | > 80 | > 160 | > 160 | > 40 | > 160 | > 160 | > 160 | > 160 | – | – | – | – | –
3 | CC[C@H](C)[C@H]1O[C@]2(C=C[C@@H]1C)C[C@@H]1C[C@@H](C/C=C(\C)[C@@H](O[C@H]3C[C@H](OC)[C@@H](O[C@H]4C[C@H](OC)[C@@H](O)[C@H](C)O4)[C@H](C)O3)[C@@H](C)/C=C/C=C3\CO[C@@H]4[C@H](O)C(C)=C[C@@H](C(=O)O1)[C@]34O)O2.CO[C@H]1C[C@H](O[C@H]2[C@H](C)O[C@@H](O[C@@H]3/C(C)=C/C[C@@H]4C[C@@H](C[C@]5(C=C[C@H](C)[C@@H](C(C)C)O5)O4)OC(=O)[C@@H]4C=C(C)[C@@H](O)[C@H]5OC/C(=C\C=C\[C@@H]3C)[C@]54O)C[C@@H]2OC)O[C@@H](C)[C@@H]1O [Avermectin B1] | ≤ 10 | ≤ 20 | ≤ 20 | ≤ 10 | ≤ 10 | ≤ 20 | ≤ 5 | > 160 | ≤ 10 | > 40 | ≤ 10 | ≤ 2.5 | ≤ 10 | > 80 | > 20 | ≤ 20 | ≤ 10 | > 20 | > 10 | > 10 | ≤ 40 | ≤ 10 | ≤ 40 | ≤ 80 | – | – | – | – | –
4 | CC[C@H]1OC(=O)[C@H](C)[C@@H](O[C@H]2C[C@@](C)(OC)[C@@H](O)[C@H](C)O2)[C@H](C)[C@@H](O[C@@H]2O[C@H](C)C[C@H](N(C)C)[C@H]2O)[C@](C)(OC)C[C@@H](C)C(=O)[C@H](C)[C@@H](O)[C@]1(C)O [Clarithromycin] | < 1.25 | < 1.25 | < 1.25 | < 1.25 | < 1.25 | < 1.25 | < 1.25 | ≤ 40 | < 1.25 | ≤ 5 | < 1.25 | < 1.25 | < 1.25 | ≤ 40 | ≤ 10 | < 1.25 | < 1.25 | < 1.25 | ≤ 5 | > 160 | < 1.25 | < 1.25 | < 1.25 | < 1.25 | – | – | – | – | –
5 | CCC[C@@H]1C[C@@H](C(=O)N[C@@H]([C@H]2O[C@H](SC)[C@H](O)[C@@H](O)[C@H]2O)[C@H](C)Cl)N(C)C1 [Clindamycin] | – | – | – | – | – | – | – | – | – | – | – | – | – | – | – | – | – | – | – | – | – | – | – | – | 0.263 | 0.273 | 0.238 | 0.158 | 0.062
6 | CCN(CC)CCOc1ccc(C(=C(Cl)c2ccccc2)c2ccccc2)cc1 [Clomifen] | ≤ 40 | ≤ 40 | ≤ 40 | ≤ 40 | ≤ 20 | ≤ 40 | ≤ 10 | > 160 | ≤ 40 | ≤ 80 | ≤ 40 | ≤ 20 | ≤ 10 | > 160 | > 80 | ≤ 80 | ≤ 40 | ≤ 80 | > 80 | > 40 | ≤ 80 | ≤ 40 | ≤ 40 | ≤ 40 | – | – | – | – | –
7 | CCN(CC)CCOc1ccc(C(=C(Cl)c2ccccc2)c2ccccc2)cc1 [Clomiphene] | – | – | – | – | – | – | – | – | – | – | – | – | – | – | – | – | – | – | – | – | – | – | – | – | 0.947 | 0.955 | 0.845 | 0.398 | 0.335
8 | CCOC(=O)C1=C(C)NC(C)=C(C(=O)OC)C1c1cccc(Cl)c1Cl (stereo not drawn) [Felodipine] | ≤ 20 | ≤ 40 | ≤ 20 | ≤ 20 | ≤ 40 | > 40 | ≤ 20 | > 40 | ≤ 20 | > 40 | ≤ 40 | ≤ 10 | ≤ 40 | > 20 | > 80 | ≤ 40 | ≤ 10 | > 80 | > 20 | > 80 | – | – | – | – | – | – | – | – | –
9 | CNCCC(Oc1ccc(C(F)(F)F)cc1)c1ccccc1 (stereo not drawn) [Fluoxetine] | ≤ 160 | ≤ 160 | ≤ 80 | ≤ 80 | ≤ 160 | ≤ 160 | ≤ 40 | > 160 | ≤ 40 | ≤ 80 | ≤ 80 | ≤ 80 | ≤ 80 | > 160 | > 160 | > 160 | ≤ 80 | ≤ 160 | ≤ 160 | ≤ 160 | > 160 | ≤ 160 | > 160 | ≤ 160 | – | – | – | – | –
10 | CN(C)C(=O)C(CCN1CCC(O)(c2ccc(Cl)cc2)CC1)(c1ccccc1)c1ccccc1 [Loperamide] | ≤ 80 | ≤ 80 | ≤ 80 | ≤ 80 | ≤ 80 | > 80 | ≤ 80 | > 160 | ≤ 40 | > 80 | ≤ 80 | ≤ 40 | ≤ 80 | > 80 | > 80 | > 80 | > 80 | > 80 | > 80 | > 80 | > 80 | > 80 | > 80 | > 80 | – | – | – | – | –
11 | Cc1c(N(C)CS(=O)(=O)O)c(=O)n(-c2ccccc2)n1C [Metamizol] | > 160 | > 160 | > 160 | > 160 | > 160 | > 160 | > 160 | > 160 | > 160 | > 160 | > 160 | > 160 | > 160 | > 160 | > 160 | > 160 | > 160 | > 160 | > 160 | > 160 | > 160 | > 160 | > 160 | > 160 | – | – | – | – | –
